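Following 48 hours of exposure in 96-well plates, responses at five concentrations were used to interpolate endpoints linearly. Definition used: TGI = concentration required for complete inhibition of growth.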

Among the test systems are CAKI-1 renal; SF-268 CNS; MDA-N; HCC-2998 colon; SF-539 CNS; SK-OV-3 ovarian; NCI-H460 lung; NCI-H522 lung; SNB-19 CNS.
Holding throughout (test): NCI tumour cell line growth inhibition, 48 h

Regarding `OC1c2ccccc2[C@@H]2[C@H]1[C@@H](c1ccccc1)C1(Cc3ccccc3C1O)[C@H]2c1ccccc1` (stereo partly specified), the TGI with CAKI-1 renal is 22.8 µM; in the assay on SF-268 CNS it was 24.1 µM; in the assay with MDA-N, 13.7 µM; with HCC-2998 colon it was 4.58 µM; with SF-539 CNS it was 26.6 µM; in the assay on SK-OV-3 ovarian, 23 µM. In addition, the results for the TGI with NCI-H460 lung, in the assay on NCI-H522 lung and with SNB-19 CNS were 10.2 µM, 14.2 µM and 26.5 µM, respectively.

As for `O=C1/C(=C\c2ccc([N+](=O)[O-])cc2)Sc2scc(-c3ccc(O)c(O)c3)[n+]21`, the TGI came out at 9.72 µM with CAKI-1 renal; 21 µM in the assay on SF-268 CNS; 25.6 µM in the assay on MDA-N; 19 µM in the assay on HCC-2998 colon; 22.5 µM in the assay on SF-539 CNS; 26.2 µM in the assay on SK-OV-3 ovarian. For the same compound, the TGI was 16.5 µM in the assay with NCI-H460 lung, 5.34 µM in the assay with NCI-H522 lung and 74 µM in the assay with SNB-19 CNS.

As for `O=C(NCCN1C(=O)CN=C(c2ccc(Cl)cc2)c2cc(Cl)ccc21)OCc1ccccc1`, the TGI in the assay with CAKI-1 renal is 31.9 µM; in the assay with SF-268 CNS, 29.9 µM; in the assay with MDA-N it was 31.9 µM; in the assay on HCC-2998 colon, 32.7 µM; with SF-539 CNS it was 38.2 µM; with SK-OV-3 ovarian, greater than 100 µM. Also, the TGI in the assay on NCI-H460 lung turned out to be 32.4 µM; with NCI-H522 lung it was 49.9 µM; in the assay on SNB-19 CNS, 50.8 µM.

For `CCOC(=O)N1CCN(Cc2cc(=O)n3cc(C)ccc3n2)CC1`, the TGI in the assay on CAKI-1 renal, with SF-268 CNS, in the assay on MDA-N, in the assay with HCC-2998 colon, with SF-539 CNS and in the assay on SK-OV-3 ovarian was greater than 100 µM in each case. In addition, the TGI with NCI-H460 lung, in the assay on NCI-H522 lung and with SNB-19 CNS was greater than 100 µM in each case.

On to `Cc1c2c(c(C)n1-c1ccccc1)C(=O)N(CCSC(=N)N)C2=O`, for which the TGI in the assay with CAKI-1 renal, in the assay on SF-268 CNS, with MDA-N, in the assay on HCC-2998 colon, in the assay on SF-539 CNS and with SK-OV-3 ovarian was greater than 100 µM in each case. The TGI in the assay with NCI-H460 lung, in the assay with NCI-H522 lung and in the assay on SNB-19 CNS was greater than 100 µM each time.

As for `N#Cc1cccc(C2ON=C(c3ccc([N+](=O)[O-])cc3)N2C23CC4CC(CC(C4)C2)C3)c1` (stereo unspecified), the TGI in the assay on CAKI-1 renal, with SF-268 CNS, with MDA-N, with HCC-2998 colon, in the assay with SF-539 CNS and in the assay with SK-OV-3 ovarian was greater than 100 µM throughout. Moreover, the TGI in the assay with NCI-H460 lung, with NCI-H522 lung and in the assay on SNB-19 CNS was greater than 100 µM throughout.

As for `N=C(/C=C/c1ccc(-c2cn3cc(/C=C/C(=N)N4CCCC4)ccc3n2)cc1)N1CCCC1`, the TGI in the assay on CAKI-1 renal, with SF-268 CNS, in the assay with MDA-N, with HCC-2998 colon, in the assay on SF-539 CNS and in the assay with SK-OV-3 ovarian was greater than 100 µM in each case. The TGI in the assay on NCI-H460 lung, in the assay with NCI-H522 lung and in the assay with SNB-19 CNS was greater than 100 µM throughout.

As for `CSC(SC)=C1C(=O)NN=C1C`, the TGI with CAKI-1 renal, in the assay with SF-268 CNS, in the assay with MDA-N, in the assay on HCC-2998 colon, with SF-539 CNS and with SK-OV-3 ovarian was greater than 100 µM throughout. The TGI in the assay on NCI-H460 lung, in the assay with NCI-H522 lung and in the assay with SNB-19 CNS was greater than 100 µM throughout.

On to `CC(C)(C)c1cc(C(=O)/C=C/c2ccc(O)c(O)c2O)cc(C(C)(C)C)c1O`, for which the TGI in the assay with CAKI-1 renal is 15.6 µM; in the assay with SF-268 CNS, greater than 51.4 µM; in the assay with MDA-N, 28.9 µM; in the assay on HCC-2998 colon it was 11.7 µM; in the assay with SF-539 CNS, 10.2 µM; in the assay with SK-OV-3 ovarian, 53.7 µM. Also, the TGI in the assay on NCI-H460 lung is 6.56 µM; with NCI-H522 lung it was 4.94 µM; in the assay on SNB-19 CNS, greater than 29.3 µM.

For `CC[C@@H](CCCC[C@@H]1CC[C@H]2CC(=O)C[C@@H]12)OC`, the TGI with CAKI-1 renal, in the assay on SF-268 CNS, in the assay with MDA-N, with HCC-2998 colon, with SF-539 CNS and in the assay on SK-OV-3 ovarian was greater than 100 µM in each case. For the same compound, the TGI with NCI-H460 lung, in the assay on NCI-H522 lung and in the assay on SNB-19 CNS was greater than 100 µM each time.

Regarding `COc1ccc(NC(=O)CC(=O)n2nc(C)c(N=Nc3ccc(C)c(C)c3)c2C)cc1`, the TGI in the assay on CAKI-1 renal is greater than 100 µM; in the assay with SF-268 CNS it was greater than 100 µM; in the assay on MDA-N it was greater than 100 µM; with HCC-2998 colon, greater than 100 µM; in the assay with SF-539 CNS, greater than 100 µM; with SK-OV-3 ovarian, 27.7 µM. In addition, the TGI in the assay with NCI-H460 lung, in the assay on NCI-H522 lung and in the assay with SNB-19 CNS was greater than 100 µM throughout.

`COc1ccc2c(c1)c1nn(CCN(C)C)c3ccc4c(=O)n(CCN(C)C)c(=O)n2c4c13`: the TGI in the assay with CAKI-1 renal was determined as 0.601 µM; in the assay on SF-268 CNS, 0.211 µM; in the assay with MDA-N, 0.186 µM; in the assay with HCC-2998 colon, 0.0546 µM; in the assay on SF-539 CNS, 1.77 µM; in the assay on SK-OV-3 ovarian it was 0.304 µM. In addition, the TGI in the assay with NCI-H460 lung is 0.0142 µM; with NCI-H522 lung it was 0.0747 µM; in the assay on SNB-19 CNS, 0.635 µM.

Consider `Cc1cc(S(N)(=O)=O)c(SCc2nc(N)nc(N(C)C)n2)cc1Cl`, for which the TGI with CAKI-1 renal, in the assay on SF-268 CNS, in the assay with MDA-N, in the assay on HCC-2998 colon, in the assay with SF-539 CNS and in the assay with SK-OV-3 ovarian was greater than 10 µM each time. Also, the TGI in the assay on NCI-H460 lung, in the assay with NCI-H522 lung and in the assay on SNB-19 CNS was greater than 10 µM each time.

In the case of `COc1cc(N(CCC#N)CCC#N)ccc1/C(N=Nc1ccc(C)cc1)=N/NC(=O)c1cc(Br)ccc1O`, the TGI in the assay with CAKI-1 renal is 66.6 µM; with SF-268 CNS, 91.4 µM; with MDA-N, greater than 100 µM; with HCC-2998 colon it was 50.1 µM; with SF-539 CNS it was greater than 100 µM; in the assay on SK-OV-3 ovarian, greater than 100 µM. Also, the TGI in the assay with NCI-H460 lung was 54.4 µM; with NCI-H522 lung it was 50.3 µM; in the assay on SNB-19 CNS it was greater than 100 µM.
